Test results from the supplement of paper PMC10307832.

What was measured:
Assay in all cases: relative viability (nuclei count vs DMSO), 5 days (fraction); higher = more cells survive
CAL-12T = test system: CAL-12T
Procedure, shortened: (§1)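 Lung cancer cell lines were pin-tool dosed in 1536-well plates on the day after seeding, with either a lone drug or a fixed anchor-drug dose plus five library-drug doses (not always all listed) in √10 steps. Nuclei were counted on 4× images after 5 days. Relative viability is the ratio of treated-well to vehicle-well nuclei counts, with each value a median of duplicate plates.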

COR-L 105 = test system: COR-L 105
Procedure, shortened: as §1

H3255 = test system: H3255
Procedure, shortened: as §1

HARA = test system: HARA
Procedure, shortened: as §1

HCC-15 = test system: HCC-15
Procedure, shortened: as §1

HCC-366 = test system: HCC-366
Procedure, shortened: as §1

LC-2-ad = test system: LC-2-ad
Procedure, shortened: as §1

LU99A = test system: LU99A
Procedure, shortened: as §1

NCI-H1395 = test system: NCI-H1395
Procedure, shortened: as §1

NCI-H1666 = test system: NCI-H1666
Procedure, shortened: as §1

NCI-H1734 = test system: NCI-H1734
Procedure, shortened: as §1

NCI-H1944 = test system: NCI-H1944
Procedure, shortened: as §1

NCI-H1975 = test system: NCI-H1975
Procedure, shortened: as §1

NCI-H1993 = test system: NCI-H1993
Procedure, shortened: as §1

NCI-H2228 = test system: NCI-H2228
Procedure, shortened: as §1

NCI-H3122 = test system: NCI-H3122
Procedure, shortened: as §1

NCI-H520 = test system: NCI-H520
Procedure, shortened: as §1

NCI-H647 = test system: NCI-H647
Procedure, shortened: as §1

NCI-H661 = test system: NCI-H661
Procedure, shortened: as §1

NCI-H838 = test system: NCI-H838
Procedure, shortened: as §1

PC-14 = test system: PC-14
Procedure, shortened: as §1

PC-3 [JPC-3] = test system: PC-3 [JPC-3]
Procedure, shortened: as §1

SK-LU-1 = test system: SK-LU-1
Procedure, shortened: as §1

## O=C(O)CCCCC(CCSCc1ccccc1)SCc1ccccc1 (stereo not drawn) [CPI-613] + Cc1nc(Nc2ncc(C(=O)Nc3c(C)cccc3Cl)s2)cc(N2CCN(CCO)CC2)n1 [Dasatinib] (partner 0.075 µM)
CAL-12T; first compound 5 µM
  relative viability: 0.398
CAL-12T; first compound 15.81 µM
  relative viability: 0.454
CAL-12T; first compound 50 µM
  relative viability: 0.263
CAL-12T; first compound 158.11 µM
  relative viability: 0.0331
CAL-12T; first compound 500 µM
  relative viability: 0.0093
COR-L 105; first compound 5 µM
  relative viability: 0.386
COR-L 105; first compound 15.81 µM
  relative viability: 0.285
COR-L 105; first compound 50 µM
  relative viability: 0.307
COR-L 105; first compound 158.11 µM
  relative viability: 0.278
COR-L 105; first compound 500 µM
  relative viability: 0.131
H3255; first compound 5 µM
  relative viability: 0.408
H3255; first compound 15.81 µM
  relative viability: 0.307
H3255; first compound 50 µM
  relative viability: 0.346
H3255; first compound 500 µM
  relative viability: 0.335
HARA; first compound 15.81 µM
  relative viability: 0.23
HARA; first compound 50 µM
  relative viability: 0.309
HARA; first compound 158.11 µM
  relative viability: 0.149
HARA; first compound 500 µM
  relative viability: 0.0196
HCC-15; first compound 5 µM
  relative viability: 0.56
HCC-15; first compound 15.81 µM
  relative viability: 0.529
HCC-15; first compound 50 µM
  relative viability: 0.552
HCC-15; first compound 158.11 µM
  relative viability: 0.308
HCC-15; first compound 500 µM
  relative viability: 0.0395
HCC-366; first compound 5 µM
  relative viability: 0.604
HCC-366; first compound 15.81 µM
  relative viability: 0.606
HCC-366; first compound 50 µM
  relative viability: 0.798
HCC-366; first compound 158.11 µM
  relative viability: 0.309
HCC-366; first compound 500 µM
  relative viability: 0.0101
LC-2-ad; first compound 5 µM
  relative viability: 0.488
LC-2-ad; first compound 15.81 µM
  relative viability: 0.51
LC-2-ad; first compound 50 µM
  relative viability: 0.573
LC-2-ad; first compound 158.11 µM
  relative viability: 0.259
LC-2-ad; first compound 500 µM
  relative viability: 0.0544
LU99A; first compound 5 µM
  relative viability: 0.551
LU99A; first compound 15.81 µM
  relative viability: 0.577
LU99A; first compound 50 µM
  relative viability: 0.424
LU99A; first compound 158.11 µM
  relative viability: 0.426
LU99A; first compound 500 µM
  relative viability: 0.0381
NCI-H1395; first compound 5 µM
  relative viability: 0.397
NCI-H1395; first compound 15.81 µM
  relative viability: 0.352
NCI-H1395; first compound 50 µM
  relative viability: 0.414
NCI-H1395; first compound 158.11 µM
  relative viability: 0.409
NCI-H1395; first compound 500 µM
  relative viability: 0.358
NCI-H1666; first compound 5 µM
  relative viability: 0.808
NCI-H1666; first compound 15.81 µM
  relative viability: 0.858
NCI-H1666; first compound 50 µM
  relative viability: 0.749
NCI-H1666; first compound 158.11 µM
  relative viability: 0.386
NCI-H1666; first compound 500 µM
  relative viability: 0.18
NCI-H1734; first compound 5 µM
  relative viability: 0.411
NCI-H1734; first compound 15.81 µM
  relative viability: 0.47
NCI-H1734; first compound 50 µM
  relative viability: 0.413
NCI-H1734; first compound 158.11 µM
  relative viability: 0.301
NCI-H1734; first compound 500 µM
  relative viability: 0.105
NCI-H1944; first compound 5 µM
  relative viability: 0.212
NCI-H1944; first compound 15.81 µM
  relative viability: 0.219
NCI-H1944; first compound 50 µM
  relative viability: 0.188
NCI-H1944; first compound 158.11 µM
  relative viability: 0.19
NCI-H1944; first compound 500 µM
  relative viability: 0.0792
NCI-H1975; first compound 5 µM
  relative viability: 0.377
NCI-H1975; first compound 15.81 µM
  relative viability: 0.331
NCI-H1975; first compound 50 µM
  relative viability: 0.347
NCI-H1975; first compound 158.11 µM
  relative viability: 0.176
NCI-H1975; first compound 500 µM
  relative viability: 0.111
NCI-H1993; first compound 5 µM
  relative viability: 0.495
NCI-H1993; first compound 15.81 µM
  relative viability: 0.262
NCI-H1993; first compound 50 µM
  relative viability: 0.605
NCI-H1993; first compound 158.11 µM
  relative viability: 0.522
NCI-H1993; first compound 500 µM
  relative viability: 0.369
NCI-H2228; first compound 5 µM
  relative viability: 0.559
NCI-H2228; first compound 15.81 µM
  relative viability: 0.469
NCI-H2228; first compound 50 µM
  relative viability: 0.437
NCI-H2228; first compound 158.11 µM
  relative viability: 0.231
NCI-H2228; first compound 500 µM
  relative viability: 0.0527
NCI-H3122; first compound 5 µM
  relative viability: 0.795
NCI-H3122; first compound 15.81 µM
  relative viability: 0.693
NCI-H3122; first compound 50 µM
  relative viability: 0.802
NCI-H3122; first compound 158.11 µM
  relative viability: 0.702
NCI-H3122; first compound 500 µM
  relative viability: 0.28
NCI-H520; first compound 5 µM
  relative viability: 0.188
NCI-H520; first compound 15.81 µM
  relative viability: 0.17
NCI-H520; first compound 50 µM
  relative viability: 0.202
NCI-H520; first compound 158.11 µM
  relative viability: 0.168
NCI-H520; first compound 500 µM
  relative viability: 0.149
NCI-H647; first compound 5 µM
  relative viability: 0.197
NCI-H647; first compound 15.81 µM
  relative viability: 0.144
NCI-H647; first compound 50 µM
  relative viability: 0.146
NCI-H647; first compound 158.11 µM
  relative viability: 0.0387
NCI-H647; first compound 500 µM
  relative viability: 0.0112
NCI-H661; first compound 5 µM
  relative viability: 0.863
NCI-H661; first compound 15.81 µM
  relative viability: 0.83
NCI-H661; first compound 50 µM
  relative viability: 0.798
NCI-H661; first compound 158.11 µM
  relative viability: 0.312
NCI-H661; first compound 500 µM
  relative viability: 0.155
NCI-H838; first compound 5 µM
  relative viability: 0.285
NCI-H838; first compound 15.81 µM
  relative viability: 0.237
NCI-H838; first compound 50 µM
  relative viability: 0.286
NCI-H838; first compound 158.11 µM
  relative viability: 0.261
NCI-H838; first compound 500 µM
  relative viability: 0.243
PC-14; first compound 5 µM
  relative viability: 0.237
PC-14; first compound 15.81 µM
  relative viability: 0.232
PC-14; first compound 50 µM
  relative viability: 0.247
PC-14; first compound 158.11 µM
  relative viability: 0.0644
PC-14; first compound 500 µM
  relative viability: 0.0134
PC-3 [JPC-3]; first compound 5 µM
  relative viability: 0.903
PC-3 [JPC-3]; first compound 15.81 µM
  relative viability: 0.948
PC-3 [JPC-3]; first compound 50 µM
  relative viability: 0.909
PC-3 [JPC-3]; first compound 158.11 µM
  relative viability: 0.879
PC-3 [JPC-3]; first compound 500 µM
  relative viability: 0.348
SK-LU-1; first compound 5 µM
  relative viability: 0.176
SK-LU-1; first compound 15.81 µM
  relative viability: 0.18
SK-LU-1; first compound 50 µM
  relative viability: 0.187
SK-LU-1; first compound 158.11 µM
  relative viability: 0.151
SK-LU-1; first compound 500 µM
  relative viability: 0.0997
